Test results: patent US8497075B2, “Methods of identifying a modulator that inhibits the binding between Epstein-Barr virus induced receptor 2 and cholesterol derived ligands” (Novartis AG, priority 2008, dated 2013)

Assays:
[1] = biological target: T1, hEBI2 (Homo sapiens, UniProt P32249); assay: calcium fluorescence (FLIPR); format: cell-based; parameters: expressed in transfected cells; host or cells: CHO-K1 expressing apoaequorin (CHO-Aeq) with Gqi5; line E2
Experimental: If not stated otherwise compounds were dissolved at 10 mM in DMSO or ethanol (cholesterol, 25MDC). Serial dilutions were carried out in 90% DMSO (FLIPR, GTPgS) or assay buffer (binding assay). For cell based assays final DMSO concentrations is kept below 1%.
If not stated otherwise, the same Chinese hamster ovary (CHO) cell line called E2 which was used for the ligand identification was used in these experiments. This cell line is expressing (1) the recombinant human EBI2 receptor, (2) the promiscuous Gqi5 protein as well as (3) apo-aequorin.
Cells were seeded in black/clear bottom, poly-D-Lysine coated 384-well plates at a cell density of 10,000 cells/25 μL/well, using culture medium. Cells were cultured for 24 hours at 37° C./5% CO2. Culture medium was removed and for cell loading, 20 μl per well of loading buffer (Calcium-4 no wash dye) were distributed into the wells and the plates were incubated for 60 min at 37° C. in 5% CO2. With the FLIPR pipettor, 10 μl of the different compounds were added to the cells and the subsequent fluorescent changes monitored for 3 minutes. Using the FLIPR software tool, 2 values of fluorescence calcium responses were exported: Fmax, the fluorescence at the peak and Fbasal corresponding to the value prior to compound injection. From these two values, the calcium response is normalized with respect to the calcium baseline values using dF/F=(Fmax−Fbasal)/Fbasal. The maximum dF/F is called Emax.

[2] = biological target: T1, hEBI2; assay: GTPγS assay on EBI2 membranes; format: biochemical; parameters: expressed in transfected cells; host or cells: CHO-K1 expressing apoaequorin (CHO-Aeq) with Gqi5; line E2
Experimental: (§1) The cell suspension was then homogenized using a Dounce homogenizer (10 strokes) with a driller. After centrifugation at 110000×g for 45 minutes and removal of the supernatant, pellets were resuspended in sucrose buffer (50 mM Tris pH7.2, 250 mM sucrose, 10% glycerol) by vortexing. The suspension was again homogenize using a Dounce homogenizer (10 strokes) and spun at 100000×g for 45 minutes. The supernatant was discarded, the pellet resuspended in sucrose buffer, protein concentration determined, aliquoted and frozen at −80° C. These membrane preparations were used in binding as well as GTPgS assays.
Ten micrograms of EBI2 membranes are dissolved in 40 μl of buffer A (20 mM Hepes pH 7.4, 100 mM NaCl, 1.5 mM MgCl2, Saponin 10 μg/ml) supplemented with 10 μM GDP. After addition of […] scintilation proximity assay (SPA) beads (100 μg/well, Amersham, RPNQ0001) components are gently mixed and incubated at RT for 15 minutes. Twenty microliters of compound diluted in buffer A and 20 μl of GTPγ^35S (Perkin Elmer NEG030X) is added before incubation for one hour at RT. Plates are transferred and counted in a TopCount (Perkin Elmer NXT HTS™) and counts are analysed plotted and to determine half maximal concentrations of activation using standard software (Prism™, GraphPad Software Inc.).

[3] = biological target: T1, hEBI2; assay: [3H] 7a,25DHC radio-ligand binding assay (SPA), IC50 determination; parameters: expressed in transfected cells; host or cells: CHO-K1 expressing apoaequorin (CHO-Aeq) with Gqi5; line E2
Experimental: as §1
Lyophilized wheat germ agglutinin scintilation proximity assay (SPA) beads (RPNQ0001) were purchased from GE Healthcare (Buckinghamshire, UK). One vial (500 mg) is reconstituted by adding 5 mL of distilled water to give a final concentration of 100 mg/mL. Reconstituted SPA beads must be stored at 4° C., but must not be frozen. [3H]-7a,25-OHC, was synthesized by reduction of the 7-keto, 25DHC in the presence of 3H-L-selectride.
The SPA assay was performed in a final volume of 50 μl per well in a 384-well polystyrene Opti plate. The components were added into the wells as follows: • 10 μl tested compounds in 50 mM Tris; 100 mM NaCl; 5 mM MgCl2 and 0.1% Cyclodextrine.
Total binding was determined by the addition of 10 μl of 50 mM Tris; 100 mM NaCl; 5 mM MgCl2 and 0.1% Cyclodextrine and non-specific binding was determined by the addition of 10 μl NVP-BYX998-NX-4 (final concentration of 10 μM). • 20 μL of 10 nM final [3H]-BYX998 in assay buffer (50 mM Tris-HCl, 100 mM NaCl, 5 mM MgCl2 and 0.1% Cyclodextrine). • 20 μL of a mixed bead and membrane suspension in assay buffer, in order to get a final concentration of 20 μg membranes/well and 200 μg beads/well.
The plates were sealed and shaken at room temperature for 10 minutes then allowed to stand at room temperature for at least 12 hours. The plates were counted using a Perkin Elmer TopCount reader, each well being counted for 1 minute.
Each IC50 determination was performed with 11 concentrations.
A standard data reduction algorithm was used to calculate the percentage of specific binding in the presence of test compound as follows: ((B−NSB)/(Total−NSB))·100, where B=Binding in the presence of test compound (in cpm) NSB=Non-specific binding in the presence of excess inhibitor (in cpm) Total=Binding in the absence of test compound (in cpm) Curve fitting of the normalized concentration response curves using a four parameter logistic fit is then performed using XLfit (v.2 or v.4, IDBS, Guildford, UK). The equation used is XLfit equation no. […] By default, min is fixed at 0, whereas max is not fixed.

[4] = biological target: T1, hEBI2; assay: saturation binding, KD determination; parameters: expressed in transfected cells; host or cells: CHO-K1 expressing apoaequorin (CHO-Aeq) with Gqi5; line E2
Experimental: as §1, with “CHO cells stably expressing human EBI2 (E2) were grown in roller bottles (Corning #431191) to confluency, washed with phosphate buffered saline (PBS) once and frozen at −80° C. The frozen cell pellets were resuspended in ice-cold homogenization buffer (10 ml/gram, 20 mM Tris pH7.2) supplemented with a protease inhibitor cocktail (Complete™, Roche, #05 056 489 001-14302200). The cell” for “The cell”
These solutions were made in buffer containing 50 mM Tris; 100 mM NaCl; 5 mM MgCl2 and 0.1% Cyclodextrine.
[…] was measured in presence of a constant 7a,25DHC (NVP-BYX998-NX-4) concentration of 10 uM final and the corresponding total binding was measured with buffer instead of NVP-BYX998-NX-4. […]

[5] = test system: RS11846 cells; assay: chemotaxis 96 transwell assay; format: cell-based
Experimental: B cells (RS11846 or EBV-infected human B-cells) or murine bone marrow-derived dendritic cells were washed once with medium and resuspended at 1×10^6/ml. 100 μl of this suspension was added into the wells of the filter plate and gently placed into the receiver plate containing 150 μl of a given compound dilution. The final DMSO concentration was less then 0.1%. After migration for 3 hr at 37° C. in an incubator, the filter plate was carefully removed from the receiver plate and discarded. The migrated cells in the receiver plate were resuspended and transferred into round-bottom 96-well plate, centrifuged and resuspended in 100 μl PBS containing 2% FCS and 0.1% NaN3 (FACS buffer). The input cells (100 μl) were similarly processed. For the calculation of the specific migration, a fixed number of beads (10000; Invitrogen #PCB100)) in 20 μl FACS buffer was added and the suspension was analyzed by flow cytometry using a FACS instrument PAS™ (Partec). Cells were identified based on their forward scatter (FSC) and side scatter (SSC) pattern. Chemotaxis is expressed either as total cell number or as percent of input cells.

T1 sequence (P32249 whole entry): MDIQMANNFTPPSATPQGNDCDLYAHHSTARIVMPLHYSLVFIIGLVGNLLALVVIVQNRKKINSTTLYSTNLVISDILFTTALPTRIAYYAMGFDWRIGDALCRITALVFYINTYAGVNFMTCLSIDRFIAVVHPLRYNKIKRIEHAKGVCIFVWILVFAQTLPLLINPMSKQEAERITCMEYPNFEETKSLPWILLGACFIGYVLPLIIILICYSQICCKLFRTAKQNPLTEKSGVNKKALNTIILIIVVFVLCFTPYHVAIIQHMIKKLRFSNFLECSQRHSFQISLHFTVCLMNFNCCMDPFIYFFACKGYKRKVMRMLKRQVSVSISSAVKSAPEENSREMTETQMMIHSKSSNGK

CC(CO)CCC[C@@H](C)[C@H]1CC[C@H]2[C@@H]3[C@@H](O)C=C4C[C@@H](O)CC[C@]4(C)[C@H]3CC[C@]12C (stereo partly drawn) [7b,27DHC, cholest-5-ene-3b,7b,27-triol]
EC50 ([1]; n = 3-4, read-out: FLIPR EC50): 310 nM | EC50 ([2]; n = 3-4, read-out: GTPgS EC50): 125 nM | IC50 [3]: > 10000 nM

C[C@H](CCCC(C)(C)O)[C@H]1CC[C@H]2[C@@H]3CC=C4C[C@@H](O)CC[C@]4(C)[C@H]3CC[C@]12C [25DHC, 25-hydroxycholesterol]
EC50 [1]: 3030 nM | EC50 [2]: 727 nM | IC50 [3]: > 10000 nM

C[C@H](CCCC(C)(C)O)[C@H]1CC[C@H]2[C@@H]3[C@H](O)C=C4C[C@@H](O)CC[C@]4(C)[C@H]3CC[C@]12C [[^3H]-7a,25DHC]
Kd [4]: 25 nM

C[C@H](CCCC(C)(C)O)[C@H]1CC[C@H]2[C@@H]3[C@@H](O)C=C4C[C@@H](O)CC[C@]4(C)[C@H]3CC[C@]12C [[^3H]-7b,25DHC]
specific binding to EBI2 membranes ([4]; data not shown): not able to detect specific binding

pertussis toxin [reference compound]
inhibition of 7a,25DHC-mediated chemotaxis of RS11846 cells [5]: blocked
